In ChEMBL document CHEMBL4190322, “Structure-based development of novel triazoles and related thiazolotriazoles as anticancer agents and Cdc25A/B phosphatase inhibitors. Synthesis, in vitro biological evaluation, molecular docking and in silico ADME-T studies” (Eur J Med Chem, 2017):
The source made the active and inactive calls. The rule behind the calls is not given here.

Tests used:
Assay type in all cases: functional
[1] = tested on: HOP-62; experiment: Growth inhibition of human HOP62 cells at 10 uM after 48 hrs by SRB assay relative to control; conditions: HOP-62, 48 h, read-out: GI
[2] = tested on: UO-31; experiment: Growth inhibition of human UO31 cells at 10 uM after 48 hrs by SRB assay relative to control; conditions: UO-31, 48 h, read-out: GI
[3] = tested on: PC-3; experiment: Growth inhibition of human PC3 cells at 10 uM after 48 hrs by SRB assay relative to control; conditions: PC-3, 48 h, read-out: GI
[4] = tested on: SR; experiment: Growth inhibition of human SR cells at 10 uM after 48 hrs by SRB assay relative to control; conditions: read-out: GI
[5] = tested on: RPMI-8226; experiment: Growth inhibition of human RPMI8226 cells at 10 uM after 48 hrs by SRB assay relative to control; conditions: RPMI-8226, 48 h, read-out: GI
[6] = tested on: SNB-19; experiment: Growth inhibition of human SNB19 cells at 10 uM after 48 hrs by SRB assay relative to control
[7] = tested on: 786-0; experiment: Growth inhibition of human 786-0 cells at 10 uM after 48 hrs by SRB assay relative to control
[8] = tested on: HOP-92; experiment: Growth inhibition of human HOP92 cells at 10 uM after 48 hrs by SRB assay relative to control; conditions: HOP-92, 48 h, read-out: GI
[9] = tested on: Malme-3M; experiment: Growth inhibition of human MALME-3M cells at 10 uM after 48 hrs by SRB assay relative to control
[10] = tested on: UACC-257; experiment: Growth inhibition of human UACC257 cells at 10 uM after 48 hrs by SRB assay relative to control
[11] = tested on: K562; experiment: Growth inhibition of human K562 cells at 10 uM after 48 hrs by SRB assay relative to control; conditions: K562, 48 h, read-out: GI
[12] = tested on: A498; experiment: Growth inhibition of human A498 cells at 10 uM after 48 hrs by SRB assay relative to control; conditions: A498, 48 h, read-out: GI
[13] = tested on: U-251; experiment: Growth inhibition of human U251 cells at 10 uM after 48 hrs by SRB assay relative to control; conditions: U-251, 48 h, read-out: GI
[14] = tested on: Hs-578T; experiment: Growth inhibition of human Hs 578T cells at 10 uM after 48 hrs by SRB assay relative to control
[15] = tested on: SF-268; experiment: Growth inhibition of human SF268 cells at 10 uM after 48 hrs by SRB assay relative to control
[16] = tested on: CAKI-1; experiment: Growth inhibition of human Caki1 cells at 10 uM after 48 hrs by SRB assay relative to control; conditions: CAKI-1, 48 h, read-out: GI
[17] = tested on: A549; experiment: Growth inhibition of human A549 cells at 10 uM after 48 hrs by SRB assay relative to control
[18] = tested on: OVCAR-4; experiment: Growth inhibition of human OVCAR4 cells at 10 uM after 48 hrs by SRB assay relative to control
[19] = tested on: NCI-H322M; experiment: Growth inhibition of human NCI-H322M cells at 10 uM after 48 hrs by SRB assay relative to control
[20] = tested on: MOLT-4; experiment: Growth inhibition of human MOLT4 cells at 10 uM after 48 hrs by SRB assay relative to control
[21] = tested on: MDA-MB-468; experiment: Growth inhibition of human MDA-MB-468 cells at 10 uM after 48 hrs by SRB assay relative to control
[22] = tested on: CCRF-CEM; experiment: Growth inhibition of human CCRF-CEM cells at 10 uM after 48 hrs by SRB assay relative to control; conditions: read-out: GI
[23] = tested on: SK-MEL-2; experiment: Growth inhibition of human SK-MEL-2 cells at 10 uM after 48 hrs by SRB assay relative to control
[24] = tested on: SK-MEL-5; experiment: Growth inhibition of human SK-MEL-5 cells at 10 uM after 48 hrs by SRB assay relative to control
[25] = tested on: MCF7; experiment: Growth inhibition of human MCF7 cells at 10 uM after 48 hrs by SRB assay relative to control
[26] = tested on: SNB-75; experiment: Growth inhibition of human SNB75 cells at 10 uM after 48 hrs by SRB assay relative to control; conditions: SNB-75, 48 h, read-out: GI
[27] = tested on: OVCAR-3; experiment: Growth inhibition of human OVCAR3 cells at 10 uM after 48 hrs by SRB assay relative to control
[28] = tested on: HT-29; experiment: Growth inhibition of human HT-29 cells at 10 uM after 48 hrs by SRB assay relative to control
[29] = tested on: LOX IMVI; experiment: Growth inhibition of human LOXIMVI cells at 10 uM after 48 hrs by SRB assay relative to control; conditions: read-out: GI
[30] = tested on: HL-60; experiment: Growth inhibition of human HL60 cells at 10 uM after 48 hrs by SRB assay relative to control
[31] = tested on: NCI-H226; experiment: Growth inhibition of human NCI-H226 cells at 10 uM after 48 hrs by SRB assay relative to control
[32] = tested on: NCI-H23; experiment: Growth inhibition of human NCI-H23 cells at 10 uM after 48 hrs by SRB assay relative to control; conditions: NCI-H23, 48 h, read-out: GI
[33] = tested on: SK-OV-3; experiment: Growth inhibition of human SKOV3 cells at 10 uM after 48 hrs by SRB assay relative to control; conditions: SK-OV-3, 48 h, read-out: GI
[34] = tested on: KM12; experiment: Growth inhibition of human KM12 cells at 10 uM after 48 hrs by SRB assay relative to control; conditions: KM12, 48 h, read-out: GI
[35] = tested on: NCI/ADR-RES; experiment: Growth inhibition of human NCI/ADR-RES cells at 10 uM after 48 hrs by SRB assay relative to control; conditions: read-out: GI
[36] = tested on: UACC-62; experiment: Growth inhibition of human UACC62 cells at 10 uM after 48 hrs by SRB assay relative to control
[37] = tested on: RXF 393; experiment: Growth inhibition of human RXF393 cells at 10 uM after 48 hrs by SRB assay relative to control
[38] = tested on: NCI-H522; experiment: Growth inhibition of human NCI-H522 cells at 10 uM after 48 hrs by SRB assay relative to control; conditions: NCI-H522, 48 h, read-out: GI
[39] = tested on: OVCAR-8; experiment: Growth inhibition of human OVCAR8 cells at 10 uM after 48 hrs by SRB assay relative to control
[40] = tested on: HCT-116; experiment: Growth inhibition of human HCT116 cells at 10 uM after 48 hrs by SRB assay relative to control

`CCSc1nnc(Cc2ccc(OC)cc2)n1-c1ccc(C)cc1` was tested, and the inhibition of growth at 10 µM [1] was 6%, the inhibition of growth at 10 µM [2] was 14.2% and the inhibition of growth at 10 µM [3] was 14.3%. For the same compound, the inhibition of growth at 10 µM [4] was 8.17%, the inhibition of growth at 10 µM [5] was 13.5% and the “growth inhibition (GI)” value [6] was “inactive”. The “growth inhibition (GI)” value [7] was “inactive”, the inhibition of growth at 10 µM [8] was 31.6% and the “growth inhibition (GI)” value [9] was “inactive”. The “growth inhibition (GI)” value [10] was “inactive”, the inhibition of growth at 10 µM [11] was 20.2% and the inhibition of growth at 10 µM [12] was 6.56%. The inhibition of growth at 10 µM [13] was 1.35%, the “growth inhibition (GI)” value [14] was “inactive” and the “growth inhibition (GI)” value [15] was “inactive”. For the same compound, the inhibition of growth at 10 µM [16] was 4.82%, the inhibition of growth at 10 µM ([17]; A549, 48 h, read-out: GI) was 3.38% and the “growth inhibition (GI)” value [18] was “inactive”. The “growth inhibition (GI)” value [19] was “inactive”, the inhibition of growth at 10 µM ([20]; MOLT-4, 48 h, read-out: GI) was 17.7% and the inhibition of growth at 10 µM ([21]; MDA-MB-468, 48 h, read-out: GI) was 2.5%. It also gave an inhibition of growth at 10 µM [22] of 16.7%, an inhibition of growth at 10 µM ([23]; SK-MEL-2, 48 h, read-out: GI) of 1.9% and an inhibition of growth at 10 µM ([24]; SK-MEL-5, 48 h, read-out: GI) of 2%. The “growth inhibition (GI)” value [25] was “inactive”, the inhibition of growth at 10 µM [26] was 4% and the “growth inhibition (GI)” value [27] was “inactive”. For the same compound, the “growth inhibition (GI)” value [28] was “inactive”, the inhibition of growth at 10 µM [29] was 3.04% and the “growth inhibition (GI)” value [30] was “inactive”. The “growth inhibition (GI)” value [31] was “inactive”, the inhibition of growth at 10 µM [32] was 4.3% and the inhibition of growth at 10 µM [33] was 6.45%. The inhibition of growth at 10 µM [34] was 6.34%, the inhibition of growth at 10 µM [35] was 10.1% and the “growth inhibition (GI)” value [36] was “inactive”. The “growth inhibition (GI)” value [37] was “inactive”, the inhibition of growth at 10 µM [38] was 14.6% and the “growth inhibition (GI)” value [39] was “inactive”. It also gave an inhibition of growth at 10 µM ([40]; HCT-116, 48 h, read-out: GI) of 4.52%.
With `COc1ccc(Cc2nnc3sc(SCC(=O)Nc4ccc(Cl)cc4)nn23)cc1` the inhibition of growth at 10 µM [1] was 4.5%, the inhibition of growth at 10 µM [2] was 10.2% and the inhibition of growth at 10 µM [3] was 14.8%. The inhibition of growth at 10 µM [4] was 7.04%, the inhibition of growth at 10 µM [5] was 7.47% and the inhibition of growth at 10 µM ([6]; SNB-19, 48 h, read-out: GI) was 10.4%. The “growth inhibition (GI)” value [7] was “inactive”, the inhibition of growth at 10 µM [8] was 20.3% and the “growth inhibition (GI)” value [9] was “inactive”. For the same compound, the “growth inhibition (GI)” value [10] was “inactive”, the inhibition of growth at 10 µM [11] was 2.76% and the inhibition of growth at 10 µM [12] was 19.6%. For the same compound, the inhibition of growth at 10 µM [13] was 4.46%, the “growth inhibition (GI)” value [14] was “inactive” and the “growth inhibition (GI)” value [15] was “inactive”. The inhibition of growth at 10 µM [16] was 5.77%, the “growth inhibition (GI)” value [17] was “inactive” and the inhibition of growth at 10 µM ([18]; OVCAR-4, 48 h, read-out: GI) was 5.49%. For the same compound, the “growth inhibition (GI)” value [19] was “inactive”, the “growth inhibition (GI)” value [20] was “inactive” and the “growth inhibition (GI)” value [21] was “inactive”. The inhibition of growth at 10 µM [22] was 9.02%, the “growth inhibition (GI)” value [23] was “inactive” and the “growth inhibition (GI)” value [24] was “inactive”. The inhibition of growth at 10 µM ([25]; MCF7, 48 h, read-out: GI) was 10%, the inhibition of growth at 10 µM [26] was 20.2% and the “growth inhibition (GI)” value [27] was “inactive”. For the same compound, the “growth inhibition (GI)” value [28] was “inactive”, the inhibition of growth at 10 µM [29] was 8% and the “growth inhibition (GI)” value [30] was “inactive”. For the same compound, the “growth inhibition (GI)” value [31] was “inactive”, the inhibition of growth at 10 µM [32] was 9.4% and the inhibition of growth at 10 µM [33] was 1.64%. The inhibition of growth at 10 µM [34] was 5.75%, the inhibition of growth at 10 µM [35] was 2.54% and the “growth inhibition (GI)” value [36] was “inactive”. The “growth inhibition (GI)” value [37] was “inactive”, the inhibition of growth at 10 µM [38] was 8.35% and the “growth inhibition (GI)” value [39] was “inactive”. For the same compound, the “growth inhibition (GI)” value [40] was “inactive”.
